The values below come from article PMC12731528, “High‐Affinity Peptide‐Drug Conjugate Ligands for the TRIM24 PHD and Bromodomain” (Chemistry (Weinheim an Der Bergstrasse, Germany), 2025).

Data set [1] deals with T1, His6-TRIM24 (PHD-BRD) (Homo sapiens, UniProt O15164).
T1 sequence (O15164 825-1007): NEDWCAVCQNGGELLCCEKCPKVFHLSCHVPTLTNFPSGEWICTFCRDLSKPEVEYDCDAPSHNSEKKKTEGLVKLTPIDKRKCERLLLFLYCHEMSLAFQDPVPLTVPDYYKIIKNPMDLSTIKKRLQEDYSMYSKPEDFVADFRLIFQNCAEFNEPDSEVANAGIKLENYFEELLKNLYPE
In words: Surface plasmon resonance (SPR). Type of data set: binding. Also noted: N825–E1007; made in house; host or cells: Escherichia coli BL21-Gold (DE3), plasmid pNIC28-Bsa4. As to conditions: 15 °C; for Kd: mean of means of triplicate ± SEM.

Data set [2] addresses T2, BRPF1 (BRD) (Homo sapiens, UniProt P55201).
T2 sequence (P55201 628-732 limits assumed): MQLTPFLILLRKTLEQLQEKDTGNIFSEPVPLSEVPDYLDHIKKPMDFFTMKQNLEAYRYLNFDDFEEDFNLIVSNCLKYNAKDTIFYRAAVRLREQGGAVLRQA
In words: BROMOscan assay, BRPF1. The settings on record: mean of duplicate data ± 95% confidence interval.

Data set [3] concerns the target T1, His6-TRIM24 (PHD-BRD). Briefly: AlphaScreen competition assay, displacement of biotinylated H3(1–27)K9Me3K18Ac (B3). Type of data set: binding. On the set-up: N825–E1007; made in house; host or cells: Escherichia coli BL21-Gold (DE3), plasmid pNIC28-Bsa4. The settings on record: for IC50: AlphaScreen® IC50 (TRIM24 PHD-BRD), inhibition of TRIM24-H3K9Me3K18Ac (B3) binding, mean of triplicate ± SEM; for AlphaScreen signal at plateau relative to baseline: competitor H3(1–27)K9Me3K18Ac.

The target of a further data set is T3, TRIM24 (PHD‐BRD) (Homo sapiens, UniProt O15164).
T3 sequence (O15164 826-1004 limits assumed): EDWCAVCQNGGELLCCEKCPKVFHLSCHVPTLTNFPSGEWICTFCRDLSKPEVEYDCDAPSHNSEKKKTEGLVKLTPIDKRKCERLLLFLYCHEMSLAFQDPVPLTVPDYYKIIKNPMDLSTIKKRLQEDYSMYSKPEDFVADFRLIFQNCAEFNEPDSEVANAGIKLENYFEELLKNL
In words: BROMOscan assay, TRIM24. It is filed as binding. The source says:
The Hill Slope was set to −1.

The target in data set [4] is T1, His6-TRIM24 (PHD-BRD). In words: AlphaScreen competition assay, displacement of biotinylated H3(1–27)K18Ac (B2). Also noted: N825–E1007; made in house; host or cells: Escherichia coli BL21-Gold (DE3), plasmid pNIC28-Bsa4. The settings on record: inhibition of TRIM24-H3K18Ac (B2) binding; mean of triplicate ± SEM.
The test system of another data set is BT-474 (ER+). In words: MTT assay, BT-474. It is filed as cell-based, human. The settings on record: ER+ breast cancer cell line, up to 10 μM, 16 h. As to the method: (§1) (ER+) and CAL-51 (triple negative), treated with the indicated compound (10 µM). The data are represented as the mean of means for two biological repeats (n = 2), each consisting of three technical repeats. Error bars indicate the standard error of the mean. […]
(§2) due to issues with procurement at the time of running the assay. […]
(§3) indicated compound (10 µM). Compounds were added after seeding on day 0 only and counting was carried out each day for 6 days. Data are represented as the mean of triplicate data from one biological repeat. Error bars indicate the standard deviation. […]
(§4) supplemented with 10% FBS (Merck Life Sciences U.K. Ltd., F7524). Unless otherwise stated, cells were cultured in a humidified incubator at 37 °C and 5% CO2. Cell lines were passaged by trypsinisation (Trypsin-EDTA solution 1×, Merck Life Sciences U.K. Ltd., T3924), and by diluting the cells into a culture flask at the desired density in complete media. Cell lines were […]
(§5) Cells were seeded and allowed to adhere for 6 h in plastic clear-bottomed 96-well plates in a total volume of 200 μL/well complete medium.

The next data set concerns CAL-51 cells. Briefly: Proliferation and clonogenic assays, CAL-51. It is filed as cell-based, human. The settings on record: CAL-51, 10 µM. As to the method:
(§6) (1 picture or pasted object on this page, not shown here) […]
as §4, §5

The subject of a further data set is CAL-51 (triple negative). Briefly: MTT assay, CAL-51. As to conditions: triple-negative breast cancer cell line, up to 10 μM, 16 h. Type of data set: cell-based, human. As to the method: as §1, §2, §3, §4, §5
The next data set concerns MCF-7 cells. In words: Proliferation and clonogenic assays, MCF-7. Type of data set: cell-based, human. The settings on record: MCF-7, 10 µM. As to the method:
as §1, §2, §3
Error bars indicate the standard deviation.
as §6, §4, §5

Data set [5] has as its target T1, His6-TRIM24 (PHD-BRD).
A further data set concerns the target TRIM24. The settings on record: ref Gechijian et al. 2018; cited from earlier work.
A further data set has as its target BRPF1. The settings on record: ref Gechijian et al. 2018; cited from earlier work.
Another data set concerns TRIM33α. Also noted: method as in PMID 36098557, PMID 26061247. As to conditions: cited from earlier work.
For the next data set, the system named is TRIM33β. Also noted: method as in PMID 36098557, PMID 26061247. The settings on record: cited from earlier work.
Data set [6] concerns the target His6-TRIM24 (PHD-BRD) (UniProt O15164). Briefly: other; AlphaScreen, competitor biotinylated H3K9Me3K18Ac (B3).
The target of data set [7] is T4, BRPF1 (BRD).
T4 chain: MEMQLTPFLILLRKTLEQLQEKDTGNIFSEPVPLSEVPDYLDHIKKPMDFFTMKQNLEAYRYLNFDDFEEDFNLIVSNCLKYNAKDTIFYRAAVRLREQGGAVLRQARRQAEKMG
In words: BROMOscan. As to conditions: Synthetic nine-residue H3(1-9) peptide. Residue 9 (K10 in precursor numbering) is unnatural amino acid 42, a lysine analogue whose side-chain nitrogen is part of an isoindoline ring (parent written as Lys). C-terminal group is not stated in the text. Limits are inferred from H3(1-8) peptide 46 plus amino acid 42. limits by convention from the usual BRPF1 bromodomain structural construct (covers B); modification not given.

Data set [8] has as its target T4, BRPF1 (BRD). The settings on record: Synthetic nine-residue H3(1-9) peptide. Residue 9 (K10 in precursor numbering) is unnatural amino acid 42, a lysine analogue whose side-chain nitrogen is part of an isoindoline ring (parent written as Lys). C-terminal group is not stated in the text. Limits are inferred from H3(1-8) peptide 46 plus amino acid 42. limits by convention from the usual BRPF1 bromodomain structural construct (covers B); modification not given.

Several values for one entry are separate records, joined by “and”; a condition that tells them apart may be missing. Equal values may be shown once. Read-outs that look alike come from different tables or passages of the source.

Molecule `CCCOc1cccc(Oc2cc3c(cc2NS(=O)(=O)c2cccc(C(=O)NCCOCCOCCOCCOCCNC(C)=O)c2)n(C)c(=O)n3C)c1` [compound 34] registered a koff on His6-TRIM24 (PHD-BRD) [1] (SPR) of 0.061 s⁻¹. The same molecule displayed an association rate constant (kon) at His6-TRIM24 (PHD-BRD) [1] (SPR) of 6.1e+06 M⁻¹ s⁻¹. Moreover, the Kd on His6-TRIM24 (PHD-BRD) [1] (binding saturation, read-out: SPR Kd – equilibrium) is 11 ± 2.3 nM; on His6-TRIM24 (PHD-BRD) [1] (multi-cycle kinetics, read-out: SPR Kd – kinetic), 10 ± 7 nM; on BRPF1 (BRD) [2], 2.15 ± 0.49 nM; on TRIM24 (PHD‐BRD) (BROMOscan TRIM24 PHD-BRD Kd, mean of duplicate data ± 95% confidence interval) it was 2 ± 0.98 nM; on TRIM24 (PHD‐BRD) (individual duplicate curves, read-out: BROMOscan TRIM24 Kd, single dose-response curve), 2.5 nM and 1.5 nM. In addition, the IC50 is 275 nM on His6-TRIM24 (PHD-BRD) [3] and 94.2 ± 4.6 nM on His6-TRIM24 (PHD-BRD) [4]. Further, the “AlphaScreen signal at plateau relative to baseline” value at His6-TRIM24 (PHD-BRD) [3] is recorded as “did not decrease to baseline”.
On to `CCCOc1cccc(Oc2cc3c(cc2NS(=O)(=O)c2cccc(C(=O)NCCOCCOCCOCCNC(C)=O)c2)n(C)c(=O)n3C)c1` [compound 33], for which the “cytotoxic effects (MTT)” value in the data set on BT-474 (ER+) and in the data set with CAL-51 (triple negative) was “did not show cytotoxic effects” throughout. The “effect on breast cancer cell growth” value in the data set with CAL-51 cells and in the data set on MCF-7 cells was “neither compound significantly affected” each time. The IC50 stood at 348 nM on His6-TRIM24 (PHD-BRD) [3] and 71 ± 4.1 nM at His6-TRIM24 (PHD-BRD) [4]. For the same molecule, the “AlphaScreen signal at plateau relative to baseline” value at His6-TRIM24 (PHD-BRD) [3] was “did not decrease to baseline”.
In the case of `C[C@H](N)C(=O)N[C@@H](CCCNC(=N)N)C(=O)N[C@H](C(=O)N[C@@H](CCCC[N+](C)(C)C)C(=O)N[C@@H](CCC(N)=O)C(=O)N[C@H](C(=O)N[C@@H](C)C(=O)N[C@@H](CCCNC(=N)N)C(=O)N[C@@H](CCCCN)C(=O)N[C@@H](CO)C(=O)N[C@H](C(=O)NCC(=O)NCC(=O)N[C@@H](CCCCN)C(=O)N[C@@H](C)C(=O)O)[C@@H](C)O)[C@@H](C)O)[C@@H](C)O` [reference compound], the half-maximal inhibitory concentration (IC50) at His6-TRIM24 (PHD-BRD) [5] (AlphaScreen® IC50, inhibition of TRIM24-H3K9Me3 (B1) binding by PDCs and controls, mean of triplicate ± SEM) was greater than 400000 nM; on His6-TRIM24 (PHD-BRD) [5] (AlphaScreen® IC50, inhibition of TRIM24-H3K9Me3 (B1) binding, mean of triplicate data ± standard error of the mean) it was greater than 400000 nM; at His6-TRIM24 (PHD-BRD) [3], greater than 400000 nM; on His6-TRIM24 (PHD-BRD) [4], greater than 400000 nM.
As for `CCCOc1cccc(Oc2cc3c(cc2NS(=O)(=O)c2cccc(C(=O)NCCOCCOCCOCC(=O)N[C@H](C(=O)N4C[C@H](O)C[C@H]4C(=O)NCc4ccc(-c5scnc5C)cc4)C(C)(C)C)c2)n(C)c(=O)n3C)c1` [dTRIM24], the Kd on TRIM24 is 42 nM; at BRPF1, 52 nM.
For `CCCOc1cc(OCCCCN(C)C)cc(Oc2cc3c(cc2NS(=O)(=O)c2ccc(OC)c(OC)c2)n(C)c(=O)n3C)c1` [IACS9571], the “binding to TRIM33α” value with TRIM33α was “does not bind”. The “binding to TRIM33β” value in the data set with TRIM33β is “does not bind”.
For `CCCOc1cccc(Oc2cc3c(cc2NS(=O)(=O)c2cccc(C(=O)NCCOCCOCCNC(C)=O)c2)n(C)c(=O)n3C)c1` [compound 32], on His6-TRIM24 (PHD-BRD) [3], the IC50 is 484 nM and the “AlphaScreen signal at plateau relative to baseline” value is given as “did not decrease to baseline”. In addition, the IC50 on His6-TRIM24 (PHD-BRD) [4] is 105 ± 5.3 nM.
For the molecule H3(1-27)K9Me3K18Ac, the IC50 with His6-TRIM24 (PHD-BRD) [6] was found to be 242 nM. This counts as sub-micromolar.
Turning to `CCCOc1cccc(Oc2cc3c(cc2NS(=O)(=O)c2cccc(C(=O)O)c2)n(C)c(=O)n3C)c1` [compound 28], the IC50 at His6-TRIM24 (PHD-BRD) [3] was greater than 100000 nM; on His6-TRIM24 (PHD-BRD) [4] it was 388 ± 46.6 nM. Moreover, at His6-TRIM24 (PHD-BRD) [3], the “AlphaScreen signal at plateau relative to baseline” value is “did not decrease to baseline”.
For ARTKQTARK [TRIM24 PHD-binding peptide (56)], the Kd with BRPF1 (BRD) [7] and in the data set with BRPF1 (BRD) [8] was greater than 10000 nM throughout.
